Data taken from patent publication US6716858B1, “Methods for inhibiting diabetic complications” (Kansas University Medical Center, priority 1995, dated 2004).

Experiments:
[1] = system: glycation of ribonuclease A (RNase); experiment: Uninterrupted glycation of ribonuclease A with glucose, anti-AGE ELISA; format: biochemical, bovine; details: RNase 1 mg/ml, 1.0 M glucose, 6 weeks; inhibitors 0.5, 3, 15 and 50 mM
Protocol: Uninterrupted Glycation with Glucose Bovine serum albumin, ribonuclease A, and human hemoglobin were incubated with glucose at 37° C. in 0.4 M sodium phosphate buffer of pH 7.5 containing 0.02% sodium azide. The protein, glucose (at 1.0 M), and prospective inhibitors (at 0.5, 3, 15 and 50 mM) were introduced into the incubation mixture simultaneously. Solutions were kept in the dark in capped tubes. Aliquots were taken and immediately frozen until analyzed by ELISA at the conclusion of the reaction. The incubations were for 3 weeks (Hb) or 6 weeks (RNase, BSA).
ELISA detection of AGE products. The general method of Engvall (1981, Methods Enzymol. 70:419-439) was used to perform the ELISA. Typically, glycated protein samples were diluted to approximately 1.5 ug/ml in 0.1 M sodium carbonate buffer of pH 9.5 to 9.7. […] In order to minimize background readings, antibodies R479 used to detect glycated RNase were raised against glycated BSA, and antibodies R618 used to detect glycated BSA and glycated Hb were raised against glycated RNase. […] The p-nitrophenylphosphate substrate solution was then added (200 ul/well) to the plates, with the absorbance of the released p-nitrophenolate being monitored at 410 nm with a Dynatech MR 4000 microplate reader.

[2] = system: post-Amadori AGE formation, RNase Amadori intermediate; experiment: Interrupted (post-Amadori) ribose glycation assay, RNase; format: biochemical, bovine; details: RNase
Protocol: ELISA detection of AGE products. The general method of Engvall (1981, Methods Enzymol. 70:419-439) was used to perform the ELISA. Typically, glycated protein samples were diluted to approximately 1.5 ug/ml in 0.1 M sodium carbonate buffer of pH 9.5 to 9.7. The protein was coated overnight at room temperature onto 96-well polystyrene plates by pippetting 200 ul of the protein solution in each well (0.3 ug/well). After coating, the protein was washed from the wells with a saline solution containing 0.05% Tween-20. The wells were then blocked with 200 ul of 1% casein in carbonate buffer for 2 h at 37° C. followed by washing. Rabbit anti-AGE antibodies were diluted at a titer of about 1:350 in incubation buffer, and incubated for 1 h at 37° C., followed by washing. In order to minimize background readings, antibodies R479 used to detect glycated RNase were raised against glycated BSA, and antibodies R618 used to detect glycated BSA and glycated Hb were raised against glycated RNase. An alkaline phosphatase-conjugated antibody to rabbit IgG was then added as the secondary antibody at a titer of 1:2000 or 1:2500 (depending on lot) and incubated for 1 h at 37° C., followed by washing. The p-nitrophenylphosphate substrate solution was then added (200 ul/well) to the plates, with the absorbance of the released p-nitrophenolate being monitored at 410 nm with a Dynatech MR 4000 microplate reader.
Glycation Modifications Modification with ribose or glucose was generally done at 37° C. in 0.4 M phosphate buffer of pH 7.5 containing 0.02% sodium azide. The high buffer concentration was always used with 0.5 M ribose modifications. The solutions were kept in capped tubes and opened only to remove timed aliquots that were immediately frozen for later carrying out the various analyses. “Interrupted glycation” experiments were carried out by first incubating protein with the ribose at 37° C. for 8 or 24 h, followed by immediate and extensive dialysis against frequent cold buffer changes at 4° C. The samples were then reincubated by quickly warming to 37° C. in the absence of external ribose. Aliquots were taken and frozen at various intervals for later analysis. Due to the low molecular weight of RNase, protein concentrations were remeasured after dialysis even when low molecular weight cut-off dialysis tubing was used. An alternative procedure was also devised (see below) in which interruption was achieved by simple 100-fold dilution from reaction mixtures containing 0.5 M ribose. Protein concentrations were estimated from UV spectra. The difference in molar extinction between the peak (278 nm) and trough (250 nm) was used for RNase concentration determinations in order to compensate for the general increase in UV absorbance that accompanies glycation. Time-dependent UV-difference spectral studies were carried out to characterize the glycation contributions of the UV spectrum. […]
Glycation was first carried out by incubating protein (10 mg/ml) with 0.5 M ribose at 37° C. in 0.4 M phosphate buffer at pH 7.5 containing 0.2% sodium azide for 24 h in the absence of inhibitors. Glycation was then interrupted to remove excess and reversibly bound (Schiff base) sugar by extensive dialysis against frequent cold buffer changes at 4° C.

[3] = 24 h in 0.5 M ribose, then free ribose removed, 37° C.

Cc1ncc(CO)c(CN)c1O [pyridoxamine]
inhibition of antigenic AGE formation (ELISA) [1]: more effective that aminoguanidine
inhibition of post-Amadori AGE formation [2, 3]: nearly complete inhibition of AGE formation with RNase at 15 mM and 50 mM

N=C(N)NN [aminoguanidine, reference compound]
inhibition of post-Amadori AGE formation [2, 3]: modest effects on blocking the formation of antigenic AGEs in RNase
inhibition of post-Amadori AGE formation ([2]; 50 mM inhibitor): less than 15%

Cc1ncc(C[n+]2csc(CCO[P@](=O)(O)OP(=O)(O)O)c2C)c(N)n1 [thiamine pyrophosphate]
inhibition of antigenic AGE formation (ELISA) [1]: more effective that aminoguanidine
inhibition of post-Amadori AGE formation [2, 3]: inhibited AGE formation more effectively than the other B1 derivatives
